Test results taken from ChEMBL document CHEMBL3856250, “Discovery of 6-Fluoro-5-(R)-(3-(S)-(8-fluoro-1-methyl-2,4-dioxo-1,2-dihydroquinazolin-3(4H)-yl)-2-methylphenyl)-2-(S)-(2-hydroxypropan-2-yl)-2,3,4,9-tetrahydro-1H-carbazole-8-carboxamide (BMS-986142): A Reversible Inhibitor of Bruton's Tyrosine Kinase (BTK) Conformationally Constrained by Two …” (J Med Chem, 2016).
pIC50: −log10 of the molar value. Values after ≈ are worked out from the molar mass of the structure shown.

Legend:
[1] = Cmax in rat at 5 mg/kg, po; type: ADME, organism-based; design: dose 5 mg/kg, route oral; conditions: in vivo
[2] = target: Voltage-gated inwardly rectifying potassium channel KCNH2 (Homo sapiens, UniProt Q12809); test: Inhibition of human ERG by patch clamp assay
Voltage-gated inwardly rectifying potassium channel KCNH2, sequence (Q12809 whole entry): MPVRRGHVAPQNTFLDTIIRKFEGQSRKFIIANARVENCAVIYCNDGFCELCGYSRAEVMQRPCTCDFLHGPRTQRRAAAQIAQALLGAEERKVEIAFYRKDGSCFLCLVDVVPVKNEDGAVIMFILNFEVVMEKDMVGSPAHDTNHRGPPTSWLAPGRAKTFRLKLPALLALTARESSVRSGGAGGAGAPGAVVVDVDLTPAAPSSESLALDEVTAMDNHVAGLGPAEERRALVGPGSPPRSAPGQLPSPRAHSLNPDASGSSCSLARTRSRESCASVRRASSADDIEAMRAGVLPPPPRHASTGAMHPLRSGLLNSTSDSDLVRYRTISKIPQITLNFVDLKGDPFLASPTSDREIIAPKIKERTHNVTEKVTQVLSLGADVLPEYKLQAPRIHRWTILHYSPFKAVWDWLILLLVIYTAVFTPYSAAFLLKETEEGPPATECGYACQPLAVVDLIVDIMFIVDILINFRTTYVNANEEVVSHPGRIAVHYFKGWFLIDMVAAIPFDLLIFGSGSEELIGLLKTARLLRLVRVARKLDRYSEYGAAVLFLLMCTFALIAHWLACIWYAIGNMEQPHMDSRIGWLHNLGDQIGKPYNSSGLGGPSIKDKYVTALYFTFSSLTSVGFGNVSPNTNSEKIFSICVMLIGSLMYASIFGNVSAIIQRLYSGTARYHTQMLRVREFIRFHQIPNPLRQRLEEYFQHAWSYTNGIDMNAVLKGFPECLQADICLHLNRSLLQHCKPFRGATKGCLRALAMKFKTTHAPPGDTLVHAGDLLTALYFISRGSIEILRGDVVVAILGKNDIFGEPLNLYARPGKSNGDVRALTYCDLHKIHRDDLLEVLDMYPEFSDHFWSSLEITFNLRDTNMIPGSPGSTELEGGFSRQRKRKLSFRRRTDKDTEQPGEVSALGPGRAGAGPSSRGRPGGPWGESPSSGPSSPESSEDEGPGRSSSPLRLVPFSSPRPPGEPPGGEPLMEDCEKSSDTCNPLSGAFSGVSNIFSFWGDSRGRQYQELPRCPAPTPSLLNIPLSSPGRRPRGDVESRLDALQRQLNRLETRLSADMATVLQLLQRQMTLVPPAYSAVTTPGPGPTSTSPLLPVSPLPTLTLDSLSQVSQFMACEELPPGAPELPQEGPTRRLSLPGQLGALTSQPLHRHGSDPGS

[3] = Drug metabolism in po dosed rat plasma assessed as isomerization of atropisomeric center after 24 hrs; type: ADME, organism-based; conditions: read-out: Drug metabolism
[4] = Volume of distribution at steady state in dog at 1 mg/kg, iv; type: ADME, organism-based, Canis lupus familiaris; conditions: in vivo, read-out: Vdss
[5] = AUC in cynomolgus monkey at 4 mg/kg, po; type: ADME, organism-based, Macaca fascicularis; conditions: in vivo
[6] = target: T1, Tyrosine-protein kinase BTK (Homo sapiens, UniProt Q06187); test: Inhibition of BTK in human Ramos-B cells assessed as suppression of BCR/anti-IgM-stimulated Ca2+ flux after 1 hr incubation in dark by FLIPR1 assay
T1 sequence (Q06187 whole entry): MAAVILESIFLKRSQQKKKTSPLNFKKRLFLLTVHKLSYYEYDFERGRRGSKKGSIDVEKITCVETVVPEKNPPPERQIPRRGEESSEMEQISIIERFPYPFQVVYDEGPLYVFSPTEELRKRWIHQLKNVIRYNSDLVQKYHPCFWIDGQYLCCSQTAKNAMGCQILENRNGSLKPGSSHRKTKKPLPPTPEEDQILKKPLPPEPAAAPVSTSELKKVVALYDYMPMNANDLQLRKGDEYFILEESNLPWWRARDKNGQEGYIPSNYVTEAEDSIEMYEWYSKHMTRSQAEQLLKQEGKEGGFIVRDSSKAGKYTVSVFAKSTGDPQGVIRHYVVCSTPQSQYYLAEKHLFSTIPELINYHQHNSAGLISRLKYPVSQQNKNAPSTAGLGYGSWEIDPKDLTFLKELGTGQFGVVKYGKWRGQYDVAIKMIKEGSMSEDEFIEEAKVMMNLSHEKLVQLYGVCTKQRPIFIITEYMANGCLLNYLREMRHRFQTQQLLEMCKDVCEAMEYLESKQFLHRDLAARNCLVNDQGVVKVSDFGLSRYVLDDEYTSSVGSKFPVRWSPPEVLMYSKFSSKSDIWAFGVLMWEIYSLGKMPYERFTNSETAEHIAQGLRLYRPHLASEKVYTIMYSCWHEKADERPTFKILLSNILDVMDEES

[7] = target: T1, Tyrosine-protein kinase BTK; test: Inhibition of BTK in human peripheral B cells assessed as suppression of BCR/anti-IgM/IgG-stimulated CD86 surface expression; type: cell-based
[8] = MRT in dog at 1 mg/kg, iv; type: ADME, organism-based, Canis lupus familiaris; conditions: in vivo
[9] = Half life in rat at 2 mg/kg, iv; type: ADME, organism-based; conditions: in vivo
[10] = Permeability of the compound at pH 5.5 by PAMPA assay; type: ADME; conditions: read-out: permeability
[11] = Clearance in mouse at 3 mg/kg, iv; type: ADME, organism-based; conditions: in vivo
[12] = Half life in mouse at 3 mg/kg, iv; type: ADME, organism-based; conditions: in vivo
[13] = Permeability of the compound at pH 7.4 by PAMPA assay; type: ADME; conditions: read-out: permeability
[14] = Oral bioavailability in rat at 5 mg/kg; type: ADME, organism-based; conditions: in vivo
Cytochrome P450 2C19 = Cytochrome P450 2C19 (Homo sapiens, UniProt P33261); test: Inhibition of CYP2C19 (unknown origin); type: ADME
Cytochrome P450 2C19, sequence (P33261 whole entry): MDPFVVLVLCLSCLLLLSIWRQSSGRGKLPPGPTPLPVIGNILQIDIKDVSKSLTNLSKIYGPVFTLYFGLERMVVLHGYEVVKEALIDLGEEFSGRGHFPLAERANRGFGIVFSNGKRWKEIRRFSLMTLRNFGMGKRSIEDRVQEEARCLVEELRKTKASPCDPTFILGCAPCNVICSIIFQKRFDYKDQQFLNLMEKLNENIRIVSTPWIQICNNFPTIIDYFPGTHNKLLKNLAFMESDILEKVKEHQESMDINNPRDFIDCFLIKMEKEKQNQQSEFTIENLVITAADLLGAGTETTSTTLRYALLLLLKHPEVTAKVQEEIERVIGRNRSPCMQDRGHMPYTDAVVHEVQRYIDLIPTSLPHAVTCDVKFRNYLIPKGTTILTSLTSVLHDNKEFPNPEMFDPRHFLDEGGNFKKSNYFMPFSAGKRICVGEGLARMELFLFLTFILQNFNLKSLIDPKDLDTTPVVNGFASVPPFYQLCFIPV

[15] = Tmax in cynomolgus monkey at 4 mg/kg, po; type: ADME, organism-based, Macaca fascicularis; conditions: in vivo
[16] = Volume of distribution at steady state in rat at 2 mg/kg, iv; type: ADME, organism-based; conditions: in vivo, read-out: Vdss
Mus musculus = test: Antiathritis activity in anticollagen antibody-induced arthritis BALB/c mouse model assessed as reduction in LPS-induced paw swelling at 20 mg/kg, po qd followed by LPS addition on day 3 measured after 11 days relative to control; type: functional; design: scale not given: the % may be the effect or the level left
[17] = Solubility of the compound in fed state stimulated intestinal fluid; type: ADME; conditions: fed state simulated intestinal fluid (FeSSIF)
[18] = Distribution coefficient, log D of the compound at pH 7.0 by HPLC method; type: physicochemical; conditions: octanol/water
[19] = AUC in dog at 2 mg/kg, po; type: ADME, organism-based, Canis lupus familiaris; conditions: in vivo
[20] = Volume of distribution at steady state in cynomolgus monkey at 2 mg/kg, iv; type: ADME, organism-based, Macaca fascicularis; conditions: in vivo, read-out: Vdss
[21] = Drug uptake in rat brain relative to plasma concentration; type: ADME
[22] = AUC in rat at 5 mg/kg, po; type: ADME, organism-based; conditions: in vivo
[23] = Protein binding in human serum; type: ADME; conditions: read-out: PPB (converted)
[24] = Half life in dog at 1 mg/kg, iv; type: ADME, organism-based, Canis lupus familiaris; conditions: in vivo
[25] = AUC in mouse at 10 mg/kg; type: ADME, organism-based; conditions: in vivo
[26] = Clearance in cynomolgus monkey at 2 mg/kg, iv; type: ADME, organism-based, Macaca fascicularis; conditions: in vivo
Cytochrome P450 2C8 = target: T2, Cytochrome P450 2C8 (Homo sapiens, UniProt P10632); test: Inhibition of CYP2C8 (unknown origin); type: ADME
T2 sequence (P10632 whole entry): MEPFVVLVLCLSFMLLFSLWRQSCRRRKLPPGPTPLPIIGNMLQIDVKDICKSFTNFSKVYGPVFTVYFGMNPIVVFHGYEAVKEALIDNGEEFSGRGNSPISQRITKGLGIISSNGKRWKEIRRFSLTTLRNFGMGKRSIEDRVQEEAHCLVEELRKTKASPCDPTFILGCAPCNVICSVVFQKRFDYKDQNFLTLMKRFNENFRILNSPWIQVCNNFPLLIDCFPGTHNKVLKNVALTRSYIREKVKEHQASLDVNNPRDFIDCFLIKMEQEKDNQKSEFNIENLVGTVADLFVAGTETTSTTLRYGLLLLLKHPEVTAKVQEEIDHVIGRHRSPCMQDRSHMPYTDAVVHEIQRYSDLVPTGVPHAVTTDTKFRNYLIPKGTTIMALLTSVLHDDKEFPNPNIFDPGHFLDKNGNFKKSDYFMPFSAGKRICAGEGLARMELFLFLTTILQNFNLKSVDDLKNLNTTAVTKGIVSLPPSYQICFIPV

Cytochrome P450 2B6 = target: T3, Cytochrome P450 2B6 (Homo sapiens, UniProt P20813); test: Inhibition of CYP2B6 (unknown origin); type: ADME
T3 sequence (P20813 whole entry): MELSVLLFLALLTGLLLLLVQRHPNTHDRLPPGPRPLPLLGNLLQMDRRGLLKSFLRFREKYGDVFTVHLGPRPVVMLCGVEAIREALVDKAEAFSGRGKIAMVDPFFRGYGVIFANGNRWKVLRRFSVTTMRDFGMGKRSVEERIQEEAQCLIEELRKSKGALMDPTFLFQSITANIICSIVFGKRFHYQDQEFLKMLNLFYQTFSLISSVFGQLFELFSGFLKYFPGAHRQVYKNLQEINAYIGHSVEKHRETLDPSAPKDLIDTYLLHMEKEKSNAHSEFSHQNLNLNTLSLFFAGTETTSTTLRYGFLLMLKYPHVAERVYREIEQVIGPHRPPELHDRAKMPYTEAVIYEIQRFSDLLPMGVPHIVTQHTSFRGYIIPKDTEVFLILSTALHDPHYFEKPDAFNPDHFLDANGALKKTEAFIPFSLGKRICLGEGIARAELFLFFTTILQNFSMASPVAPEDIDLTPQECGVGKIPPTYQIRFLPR

[27] = Half life in cynomolgus monkey at 2 mg/kg, iv; type: ADME, organism-based, Macaca fascicularis; conditions: in vivo

Cmax [1]: 2300 nM | metabolised at 24 h [3]: < 2% | Vd [4]: 3.4 L/kg | AUC [5]: 5 µM·h | pIC50 [6]: 8.05 | pIC50 [7]: 8.40 | MRT [8]: 18 h | half-life [9]: 3.6 h | Papp [10]: 67.3 ×10⁻⁶ cm/s | clearance [11]: 4.1 mL/min/kg | half-life [12]: 3.4 h | Papp [13]: 72.5 ×10⁻⁶ cm/s | bioavailability [14]: 67% | pIC50 (Cytochrome P450 2C19): 4.49 | Tmax [15]: 3.7 h | Vd [16]: 1.3 L/kg | solubility [17]: 368 µg/mL (≈ 643 µM) | logD [18]: 4.06 | AUC [19]: 16 µM·h | Vd [20]: 3 L/kg | Drug uptake [21]: < 5% | AUC [22]: 23 µM·h | fraction unbound [23]: 0.009 | half-life [24]: 13 h | AUC [25]: 39 µM·h | clearance [26]: 10 mL/min/kg | pIC50 (Cytochrome P450 2C8): 5.59 | pIC50 (Cytochrome P450 2B6): < 4.40 | half-life [27]: 5.1 h
Compound: Cc1c(-c2c(F)cc(C(N)=O)c3[nH]c4c(c23)CC[C@H](C(C)(C)O)C4)cccc1-n1c(=O)c2cccc(F)c2n(C)c1=O (atropisomer R) [BMS-986142]
pIC50 [2]: 5.26 | Activity (Mus musculus): 100%
